Experimental data: article PMC5833756, “A novel ruthenium complex with xanthoxylin induces S-phase arrest and causes ERK1/2-mediated apoptosis in HepG2 cells through a p53-independent pathway” (Cell Death & Disease, 2018)

How the values were obtained:
HepG2 cells [1] = experiment: DNA synthesis quantification (methyl-[3H]-thymidine incorporation); type: cell-based, human
Method: Cellular DNA synthesis was quantified by the incorporation of methyl-[^3H]-thymidine. Methyl-[^3H]-thymidine is a radiolabeled DNA precursor that is incorporated into newly synthesized DNA. Briefly, the complex was added along with 1 µCi of methyl-[^3H]-thymidine (PerkinElmer; Shelton, CT, USA) and incubated for 3 h. After this incubation period, cultures were harvested using a cell harvester (Brandel, Inc., Gaithersburg, MD, USA), and the amount of incorporated^3H-thymidine was determined using a liquid scintillation cocktail Hidex Maxilight (PerkinElmer Life Sciences; Groningen, GE, Netherlands) and a plate CHAMELEON V multilabel Counter (Mustionkatu 2, Turku, Finland). Mitoxantrone (Sigma-Aldrich) was used as the positive control.

HepG2 cells [2] = experiment: Mitochondrial transmembrane potential (rhodamine 123); type: cell-based, human; settings: HepG2, 24 h
Method: Mitochondrial transmembrane potential was determined by the retention of the rhodamine 123 dye[38]. Cells were incubated with rhodamine 123 (5 μg/mL, Sigma-Aldrich Co.) at 37 °C for 15 min in the dark and washed with saline.

caspase-3 = experiment: Caspase-3 colorimetric activation assay; type: cell-based, human; settings: HepG2, 48 h
Method: (§1) A caspase-3 colorimetric assay kit (Sigma-Aldrich), caspase-8 colorimetric assay kit (BioVision Inc.; Milpitas, CA, USA) and caspase-9 colorimetric assay kit (Invitrogen; Frederick, MD, USA) were used to investigate the activation of caspase-3, -8 and -9 in RCX-treated HepG2, respectively. […] Briefly, cells were lysed by incubation with cell lysis buffer on ice for 10 min and then centrifuged. Enzyme reactions were carried out in a 96-well flat-bottom microplate. To each reaction mixture, 5 μL of cell lysate was added. Absorbance at 405 nm was measured using the SpectraMax 190 Microplate Reader (Molecular Devices). The results are expressed as the specific activity (IU/mg protein) of each caspase.

caspase-8 = experiment: Caspase-8 colorimetric activation assay; type: cell-based, human; settings: HepG2, 48 h
Method: as §1

caspase-9 = experiment: Caspase-9 colorimetric activation assay; type: cell-based, human; settings: HepG2, 48 h
Method: as §1

HepG2 cells [3] = experiment: Intracellular reactive oxygen species levels (DCF-DA); type: cell-based, human; settings: HepG2, 1 or 3 h
Method: The production levels of ROS were measured according to a previously described method[39] using DCF-DA (Sigma-Aldrich). […] Then, the cells were collected, washed with saline and resuspended in FACS tubes with saline containing 5 μM DCF-DA for 30 min. […] A protection assay using the antioxidant NAC (Sigma-Aldrich) was also performed. […] The cells were then trypsinized, and the TBE assay was performed.

ERK1/2 (pT202/pY204) = experiment: Phosflow analysis; type: cell-based, human; settings: HepG2, 12 µM RCX, 15 min, 30 min, 24 h
Method: (§2) Phosphorylated ERK 1/2, JNK/SAPK and p38 MAPK were analyzed by flow cytometry. In brief, cells were collected and resuspended in 0.5–1 mL of 4% formaldehyde and fixed for 10 min at 37 °C. Then, the tubes were chilled on ice for 1 min. The cells were permeabilized by slowly adding ice-cold 100% methanol to prechilled cells while gently vortexing to a final concentration of 90% methanol and were incubated for 30 min on ice. After washing with incubation buffer (0.5% bovine serum albumin in PBS), PE mouse anti-ERK1/2 (pT202/pY204), PE mouse anti-JNK/SAPK (pT183/pY185), PE mouse anti-p38 MAPK (pT180/pY182) or PE mouse IgG1, κ isotype control antibodies, all from BD Biosciences, were added and incubated for 1 h at room temperature.

JNK/SAPK (pT183/pY185) = experiment: Phosflow analysis; type: cell-based, human; settings: HepG2, 12 µM RCX, 15 min, 30 min, 24 h
Method: as §2

p38 MAPK (pT180/pY182) = experiment: Phosflow analysis; type: cell-based, human; settings: HepG2, 12 µM RCX, 15 min, 30 min, 24 h
Method: as §2

HepG2 cells [4] = experiment: Annexin V/PI staining assay (flow cytometry); settings: HepG2, 12 and 24 µM, 12-72 h
Method: For apoptosis detection, we used the FITC Annexin V Apoptosis Detection Kit I (BD Biosciences), and the analysis was performed according to the manufacturer’s instructions. Briefly, cells were washed twice with saline and then resuspended in 100 μL of binding buffer with 5 μL of PI and 5 μL of FITC Annexin V. The cells were gently mixed by vortexing and incubated for 15 min at room temperature in the dark. Afterwards, 400 μL of binding buffer was added to each tube, and the cell fluorescence was determined by flow cytometry, as described above. The percent of viable, early apoptotic, late apoptotic and necrotic cells were determined. […] The cells were then trypsinized, and the FITC Annexin V Apoptosis Detection assay was conducted as described above.

HepG2 cell xenografts = experiment: Human hepatocellular carcinoma xenograft model; type: in vivo, C.B-17 SCID mice; settings: 0.3 mg/kg doxorubicin, 10 mg/kg 5-fluorouracil, i.p. once a day for 21 days
Method: Animals were housed in cages with free access to food and water. All animals were kept under a 12:12 h light-dark cycle (lights on at 6:00 a.m.). The local Animal Ethics Committee approved the experimental protocol (number 06/2015).
HepG2 cells (1 × 10^7 cells per 500 µL) were implanted subcutaneously into the left front armpit of the mice. […] The treatments were initiated one day after the tumor cell injection. The animals were treated intraperitoneally (200 µL per animal) once daily for 21 consecutive days. On the 22nd day, the animals were anesthetized, and peripheral blood samples were collected from the brachial artery. Animals were euthanized by anesthetic overdose, and tumors were excised and weighed.

Row | SMILES | reduction of DNA synthesis (HepG2 cells [1]; HepG2, 12 μM) | reduction of DNA synthesis (HepG2 cells [1]; HepG2, 24 μM) | mitochondrial membrane potential (HepG2 cells [2]) | caspase-3 activity (caspase-3) | caspase-8 activity (caspase-8) | caspase-9 activity (caspase-9) | ROS levels (HepG2 cells [3]) | phosphorylation of ERK1/2 (ERK1/2 (pT202/pY204)) | phosphorylation of JNK/SAPK (JNK/SAPK (pT183/pY185)) | phosphorylation of p38 MAPK (p38 MAPK (pT180/pY182)) | induction of apoptosis (HepG2 cells [4]) | reduction of tumor weight (HepG2 cell xenografts)
1 | COc1cc([O-])c(C(C)=O)c(OC)c1.F[P-](F)(F)(F)(F)F.[Ru+2].c1cnc2c(c1)ccc1cccnc12.c1cnc2c(c1)ccc1cccnc12 [RCX, cis-[Ru(phen)2(xant)](PF6)] | 46.4% | 65.2% | induced mitochondrial depolarization | caused the activation of all caspases analyzed | caused the activation of all caspases analyzed | caused the activation of all caspases analyzed | did not induce a significant increase in ROS levels | induced the phosphorylation of ERK1/2 after 15- and 30-min incubations | the phosphorylation of JNK/SAPK after a 15-min incubation | an increase in the phosphorylation of p38 MAPK was not observed at any time point investigated | caused apoptosis in a time- and concentration-dependent manner | 
2 | COc1cccc2c1C(=O)c1c(O)c3c(c(O)c1C2=O)C[C@@](O)(C(=O)CO)C[C@@H]3O[C@H]1C[C@H](N)[C@H](O)[C@H](C)O1 [DOX, doxorubicin] |  |  |  |  |  |  |  |  |  |  |  | 27.2%
